Data on 1 compound can be found in publication PMC10968680, “FHND004 inhibits malignant proliferation of multiple myeloma by targeting PDZ-binding kinase in MAPK pathway” (Aging (Albany NY), 2024).

Structures are written as SMILES. Changes are numbered by the printed parent chain.

In general, Kd refers to a measure of binding affinity in units of concentration. A lower Kd goes with higher affinity.

In test [1] the target is T1, PDZ-binding kinase (PBK) (Homo sapiens, UniProt Q96KB5, D125A/N124A).
T1 sequence (Q96KB5 1-322 N124A/D125A): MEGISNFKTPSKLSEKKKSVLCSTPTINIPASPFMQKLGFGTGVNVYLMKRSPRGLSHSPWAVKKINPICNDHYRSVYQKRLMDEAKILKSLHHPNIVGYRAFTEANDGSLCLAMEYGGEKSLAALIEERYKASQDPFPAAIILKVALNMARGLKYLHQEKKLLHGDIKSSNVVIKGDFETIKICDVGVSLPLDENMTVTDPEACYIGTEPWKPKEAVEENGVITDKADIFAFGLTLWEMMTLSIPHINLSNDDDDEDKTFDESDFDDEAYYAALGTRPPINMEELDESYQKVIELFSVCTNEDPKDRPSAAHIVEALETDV
Briefly: microscale thermophoresis (MST). Background: Microscale thermophoresis detects binding through changes in fluorescence in a small temperature gradient.

Test [2] addresses T2, PDZ-binding kinase (PBK) (Homo sapiens, UniProt Q96KB5).
T2 sequence (Q96KB5 1-322): T1 sequence (Q96KB5 1-322 N124A/D125A) with A124N, A125D
Briefly: microscale thermophoresis (MST) with RED-NHS labelled purified PBK.

Take `C=CC(=O)Nc1cc(Nc2nccc(-c3cn4c5c(cccc35)CCC4)n2)c(OC)cc1N(C)CCN(C)C` [FHND004]: the Kd in test [1] was found to be 99.5 µM; in test [2], 3.1 µM.
